Assay results: ChEMBL document CHEMBL3044736, “Synthesis, characterization, solvatochromic properties, and antimicrobial evaluation of 5-acetyl-2-thioxo-dihydro-pyrimidine-4,6-dione-based chalcones” (2013)
≈ marks a conversion by molar mass, not a printed value.

Assays:
Format in all cases: functional
[1] = test system: Escherichia coli; assay: Antimicrobial activity against Escherichia coli MTCC 443 assessed as diameter of growth inhibition zone at 25 ug/ml after 18-24 hr by agar cup diffusion method; conditions: read-out: DIZ
[2] = test system: Escherichia coli; assay: Antimicrobial activity against Escherichia coli MTCC 443 assessed as diameter of growth inhibition zone at 50 ug/ml after 18-24 hr by agar cup diffusion method; conditions: read-out: DIZ
[3] = test system: Candida albicans; assay: Antimicrobial activity against Candida albicans MTCC 227 assessed as diameter of growth inhibition zone at 50 ug/ml after 48-96 hr by agar cup diffusion method; conditions: read-out: DIZ
[4] = test system: Escherichia coli; assay: Antimicrobial activity against Escherichia coli MTCC 443 assessed as diameter of growth inhibition zone at 250 ug/ml after 18-24 hr by agar cup diffusion method; conditions: read-out: DIZ
[5] = test system: Pseudomonas aeruginosa; assay: Antimicrobial activity against Pseudomonas aeruginosa MTCC 1688 assessed as diameter of growth inhibition zone at 250 ug/ml after 18-24 hr by agar cup diffusion method; conditions: read-out: DIZ
[6] = test system: Trichophyton rubrum; assay: Antimicrobial activity against Trichophyton rubrum MTCC 296 assessed as diameter of growth inhibition zone at 50 ug/ml after 48-96 hr by agar cup diffusion method; conditions: read-out: DIZ
[7] = test system: Penicillium; assay: Antimicrobial activity against Penicillium wild strain assessed as diameter of growth inhibition zone at 50 ug/ml after 48-96 hr by agar cup diffusion method; conditions: read-out: DIZ
[8] = test system: Pseudomonas aeruginosa; assay: Antimicrobial activity against Pseudomonas aeruginosa MTCC 1688 assessed as diameter of growth inhibition zone at 50 ug/ml after 18-24 hr by agar cup diffusion method; conditions: read-out: DIZ
[9] = test system: Klebsiella pneumoniae; assay: Antimicrobial activity against Klebsiella pneumoniae MTCC 109 assessed as diameter of growth inhibition zone at 50 ug/ml after 18-24 hr by agar cup diffusion method; conditions: read-out: DIZ
[10] = test system: Streptococcus pyogenes; assay: Antimicrobial activity against Streptococcus pyogenes MTCC 442 by agar cup diffusion method
[11] = test system: Trichophyton rubrum; assay: Antimicrobial activity against Trichophyton rubrum MTCC 296 assessed as diameter of growth inhibition zone at 100 ug/ml after 48-96 hr by agar cup diffusion method; conditions: read-out: DIZ
[12] = test system: Staphylococcus aureus; assay: Antimicrobial activity against Staphylococcus aureus MTCC 96 by agar cup diffusion method
[13] = test system: Penicillium; assay: Antimicrobial activity against Penicillium wild strain assessed as diameter of growth inhibition zone at 250 ug/ml after 48-96 hr by agar cup diffusion method; conditions: read-out: DIZ
[14] = test system: Staphylococcus aureus; assay: Antimicrobial activity against Staphylococcus aureus MTCC 96 assessed as diameter of growth inhibition zone at 100 ug/ml after 18-24 hr by agar cup diffusion method; conditions: read-out: DIZ
[15] = test system: Penicillium; assay: Antimicrobial activity against Penicillium wild strain assessed as diameter of growth inhibition zone at 100 ug/ml after 48-96 hr by agar cup diffusion method; conditions: read-out: DIZ
[16] = test system: Streptococcus pyogenes; assay: Antimicrobial activity against Streptococcus pyogenes MTCC 442 assessed as diameter of growth inhibition zone at 250 ug/ml after 18-24 hr by agar cup diffusion method; conditions: read-out: DIZ
[17] = test system: Trichophyton rubrum; assay: Antimicrobial activity against Trichophyton rubrum MTCC 296 assessed as diameter of growth inhibition zone at 25 ug/ml after 48-96 hr by agar cup diffusion method; conditions: read-out: DIZ
[18] = test system: Streptococcus pyogenes; assay: Antimicrobial activity against Streptococcus pyogenes MTCC 442 assessed as diameter of growth inhibition zone at 25 ug/ml after 18-24 hr by agar cup diffusion method; conditions: read-out: DIZ
[19] = test system: Staphylococcus aureus; assay: Antimicrobial activity against Staphylococcus aureus MTCC 96 assessed as diameter of growth inhibition zone at 50 ug/ml after 18-24 hr by agar cup diffusion method; conditions: read-out: DIZ
[20] = test system: Klebsiella pneumoniae; assay: Antimicrobial activity against Klebsiella pneumoniae MTCC 109 assessed as diameter of growth inhibition zone at 250 ug/ml after 18-24 hr by agar cup diffusion method; conditions: read-out: DIZ
[21] = test system: Escherichia coli; assay: Antimicrobial activity against Escherichia coli MTCC 443 assessed as diameter of growth inhibition zone at 100 ug/ml after 18-24 hr by agar cup diffusion method; conditions: read-out: DIZ
[22] = test system: Aspergillus clavatus; assay: Antimicrobial activity against Aspergillus clavatus MTCC 1323 by agar cup diffusion method
[23] = test system: Staphylococcus aureus; assay: Antimicrobial activity against Staphylococcus aureus MTCC 96 assessed as diameter of growth inhibition zone at 25 ug/ml after 18-24 hr by agar cup diffusion method; conditions: read-out: DIZ
[24] = test system: Klebsiella pneumoniae; assay: Antimicrobial activity against Klebsiella pneumoniae MTCC 109 by agar cup diffusion method
[25] = test system: Aspergillus clavatus; assay: Antimicrobial activity against Aspergillus clavatus MTCC 1323 assessed as diameter of growth inhibition zone at 100 ug/ml after 48-96 hr by agar cup diffusion method; conditions: read-out: DIZ
[26] = test system: Penicillium; assay: Antimicrobial activity against Penicillium wild strain assessed as diameter of growth inhibition zone at 25 ug/ml after 48-96 hr by agar cup diffusion method; conditions: read-out: DIZ
[27] = test system: Trichophyton rubrum; assay: Antimicrobial activity against Trichophyton rubrum MTCC 296 assessed as diameter of growth inhibition zone at 250 ug/ml after 48-96 hr by agar cup diffusion method; conditions: read-out: DIZ
[28] = test system: Aspergillus clavatus; assay: Antimicrobial activity against Aspergillus clavatus MTCC 1323 assessed as diameter of growth inhibition zone at 25 ug/ml after 48-96 hr by agar cup diffusion method; conditions: read-out: DIZ
[29] = test system: Candida albicans; assay: Antimicrobial activity against Candida albicans MTCC 227 by agar cup diffusion method
[30] = test system: Pseudomonas aeruginosa; assay: Antimicrobial activity against Pseudomonas aeruginosa MTCC 1688 assessed as diameter of growth inhibition zone at 100 ug/ml after 18-24 hr by agar cup diffusion method; conditions: read-out: DIZ
[31] = test system: Streptococcus pyogenes; assay: Antimicrobial activity against Streptococcus pyogenes MTCC 442 assessed as diameter of growth inhibition zone at 100 ug/ml after 18-24 hr by agar cup diffusion method; conditions: read-out: DIZ
[32] = test system: Penicillium; assay: Antimicrobial activity against Penicillium wild strain by agar cup diffusion method
[33] = test system: Pseudomonas aeruginosa; assay: Antimicrobial activity against Pseudomonas aeruginosa MTCC 1688 by agar cup diffusion method
[34] = test system: Aspergillus clavatus; assay: Antimicrobial activity against Aspergillus clavatus MTCC 1323 assessed as diameter of growth inhibition zone at 250 ug/ml after 48-96 hr by agar cup diffusion method; conditions: read-out: DIZ
[35] = test system: Klebsiella pneumoniae; assay: Antimicrobial activity against Klebsiella pneumoniae MTCC 109 assessed as diameter of growth inhibition zone at 25 ug/ml after 18-24 hr by agar cup diffusion method; conditions: read-out: DIZ
[36] = test system: Trichophyton rubrum; assay: Antimicrobial activity against Trichophyton rubrum MTCC 296 by agar cup diffusion method
[37] = test system: Candida albicans; assay: Antimicrobial activity against Candida albicans MTCC 227 assessed as diameter of growth inhibition zone at 100 ug/ml after 48-96 hr by agar cup diffusion method; conditions: read-out: DIZ
[38] = test system: Escherichia coli; assay: Antimicrobial activity against Escherichia coli MTCC 443 by agar cup diffusion method
[39] = test system: Pseudomonas aeruginosa; assay: Antimicrobial activity against Pseudomonas aeruginosa MTCC 1688 assessed as diameter of growth inhibition zone at 25 ug/ml after 18-24 hr by agar cup diffusion method; conditions: read-out: DIZ
[40] = test system: Streptococcus pyogenes; assay: Antimicrobial activity against Streptococcus pyogenes MTCC 442 assessed as diameter of growth inhibition zone at 50 ug/ml after 18-24 hr by agar cup diffusion method; conditions: read-out: DIZ
[41] = test system: Candida albicans; assay: Antimicrobial activity against Candida albicans MTCC 227 assessed as diameter of growth inhibition zone at 25 ug/ml after 48-96 hr by agar cup diffusion method; conditions: read-out: DIZ
[42] = test system: Aspergillus clavatus; assay: Antimicrobial activity against Aspergillus clavatus MTCC 1323 assessed as diameter of growth inhibition zone at 50 ug/ml after 48-96 hr by agar cup diffusion method; conditions: read-out: DIZ
[43] = test system: Klebsiella pneumoniae; assay: Antimicrobial activity against Klebsiella pneumoniae MTCC 109 assessed as diameter of growth inhibition zone at 100 ug/ml after 18-24 hr by agar cup diffusion method; conditions: read-out: DIZ
[44] = test system: Candida albicans; assay: Antimicrobial activity against Candida albicans MTCC 227 assessed as diameter of growth inhibition zone at 250 ug/ml after 48-96 hr by agar cup diffusion method; conditions: read-out: DIZ
[45] = test system: Staphylococcus aureus; assay: Antimicrobial activity against Staphylococcus aureus MTCC 96 assessed as diameter of growth inhibition zone at 250 ug/ml after 18-24 hr by agar cup diffusion method; conditions: read-out: DIZ

## O=C(/C=C/c1ccc2ccccc2c1)C1C(=O)NC(=S)NC1=O
[1]
  zone of inhibition at 25 µg/mL: 14 mm
[2]
  zone of inhibition at 50 µg/mL: 16 mm
[3]
  zone of inhibition at 50 µg/mL: 22 mm
[4]
  zone of inhibition at 250 µg/mL: 21 mm
[5]
  zone of inhibition at 250 µg/mL: 19 mm
[6]
  zone of inhibition at 50 µg/mL: 20 mm
[7]
  zone of inhibition at 50 µg/mL: 18 mm
[8]
  zone of inhibition at 50 µg/mL: 12 mm
[9]
  zone of inhibition at 50 µg/mL: 15 mm
[10]
  MBC: 250 µg/mL (≈ 771 µM)
  MIC: 250 µg/mL (≈ 771 µM)
[11]
  zone of inhibition at 100 µg/mL: 22 mm
[12]
  MBC: 250 µg/mL (≈ 771 µM)
  MIC: 200 µg/mL (≈ 617 µM)
[13]
  zone of inhibition at 250 µg/mL: 23 mm
[14]
  zone of inhibition at 100 µg/mL: 15 mm
[15]
  zone of inhibition at 100 µg/mL: 21 mm
[16]
  zone of inhibition at 250 µg/mL: 21 mm
[17]
  zone of inhibition at 25 µg/mL: 18 mm
[18]
  zone of inhibition at 25 µg/mL: 14 mm
[19]
  zone of inhibition at 50 µg/mL: 12 mm
[20]
  zone of inhibition at 250 µg/mL: 20 mm
[21]
  zone of inhibition at 100 µg/mL: 18 mm
[22]
  MFC: > 1000 µg/mL
  MIC: > 1000 µg/mL
[23]
  zone of inhibition at 25 µg/mL: 10 mm
[24]
  MBC: 200 µg/mL (≈ 617 µM)
  MIC: 125 µg/mL (≈ 385 µM)
[25]
  zone of inhibition at 100 µg/mL: 25 mm
[26]
  zone of inhibition at 25 µg/mL: 18 mm
[27]
  zone of inhibition at 250 µg/mL: 23 mm
[28]
  zone of inhibition at 25 µg/mL: 18 mm
[29]
  MFC: > 1000 µg/mL
  MIC: > 1000 µg/mL
[30]
  zone of inhibition at 100 µg/mL: 15 mm
[31]
  zone of inhibition at 100 µg/mL: 18 mm
[32]
  MFC: 1000 µg/mL (≈ 3080 µM)
  MIC: 1000 µg/mL (≈ 3080 µM)
[33]
  MBC: 125 µg/mL (≈ 385 µM)
  MIC: 100 µg/mL (≈ 308 µM)
[34]
  zone of inhibition at 250 µg/mL: 25 mm
[35]
  zone of inhibition at 25 µg/mL: 14 mm
[36]
  MFC: 1000 µg/mL (≈ 3080 µM)
  MIC: 1000 µg/mL (≈ 3080 µM)
[37]
  zone of inhibition at 100 µg/mL: 24 mm
[38]
  MBC: 500 µg/mL (≈ 1540 µM)
  MIC: 250 µg/mL (≈ 771 µM)
[39]
  zone of inhibition at 25 µg/mL: 10 mm
[40]
  zone of inhibition at 50 µg/mL: 16 mm
[41]
  zone of inhibition at 25 µg/mL: 22 mm
[42]
  zone of inhibition at 50 µg/mL: 20 mm
[43]
  zone of inhibition at 100 µg/mL: 18 mm
[44]
  zone of inhibition at 250 µg/mL: 25 mm
[45]
  zone of inhibition at 250 µg/mL: 19 mm
